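1) Cells in 96-well plates. 2) Compound, 48 h, 5 concentrations. 3) Linear interpolation between surrounding doses. 4) Unreached endpoint = highest concentration. Definition used: TGI = concentration required for complete inhibition of growth.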
What was measured:
Assay in all cases: NCI-60 cell line screen, 48 h
[1] = system: HOP-62 NSCLC
[2] = system: NCI-H23 lung
[3] = system: MDA-MB-231 breast
[4] = system: OVCAR-3 ovarian
[5] = system: MCF7 breast
[6] = system: TK-10 renal
[7] = system: M14 melanoma
[8] = system: SK-OV-3 ovarian
[9] = system: EKVX NSCLC
[10] = system: T-47D breast

**Q.** What does the source list for `COc1ccccc1/C=C/c1nc2ccccc2o1`?
**A.** TGI [1]: > 10 µM; TGI [2]: > 10 µM; TGI [3]: > 10 µM; TGI [4]: > 10 µM; TGI [5]: > 10 µM; TGI [6]: > 10 µM; TGI [7]: > 10 µM; TGI [8]: > 10 µM; TGI [9]: > 10 µM; TGI [10]: > 10 µM

**Q.** For `COc1ccc(N(C(=O)NCCO)c2ccccc2)cc1`, which TGI [1] is on record?
**A.** > 100 µM

**Q.** And the TGI [2]?
**A.** > 100 µM

**Q.** What about the TGI [3] of the same molecule?
**A.** > 100 µM

**Q.** What about the TGI [4] of the same molecule?
**A.** > 100 µM

**Q.** And the TGI [5]?
**A.** > 100 µM

**Q.** What about the TGI [6] of the same molecule?
**A.** > 100 µM

**Q.** What about the TGI [7] of the same molecule?
**A.** > 100 µM

**Q.** And the TGI [8]?
**A.** > 100 µM

**Q.** And the TGI [9]?
**A.** > 100 µM

**Q.** What about the TGI [10] of the same molecule?
**A.** > 100 µM

**Q.** For `N#CCCN(CCC#N)c1ccc(C(N=Nc2ccc(Cl)cc2)=Nc2ccc(Cl)cc2)cc1`, which TGI [1] is on record?
**A.** 50.8 µM

**Q.** What about the TGI [2] of the same molecule?
**A.** 41.8 µM

**Q.** What about the TGI [3] of the same molecule?
**A.** 42 µM

**Q.** And the TGI [4]?
**A.** 36.9 µM

**Q.** And the TGI [5]?
**A.** 24.7 µM

**Q.** And the TGI [6]?
**A.** 33.5 µM

**Q.** And the TGI [7]?
**A.** 58.7 µM

**Q.** What about the TGI [8] of the same molecule?
**A.** > 100 µM

**Q.** And the TGI [9]?
**A.** 85.3 µM

**Q.** What about the TGI [10] of the same molecule?
**A.** 23.9 µM

**Q.** Which TGI [1] does the source give for `O=S(=O)(/N=C(\NO)Nc1ccc(Cl)cc1)C1CC=C(c2ccon2)S1` (stereo not given) here?
**A.** > 100 µM

**Q.** And the TGI [2]?
**A.** > 100 µM

**Q.** What about the TGI [3] of the same molecule?
**A.** > 100 µM

**Q.** And the TGI [4]?
**A.** > 100 µM

**Q.** And the TGI [5]?
**A.** > 100 µM

**Q.** And the TGI [6]?
**A.** > 100 µM

**Q.** What about the TGI [7] of the same molecule?
**A.** > 100 µM

**Q.** And the TGI [8]?
**A.** > 100 µM

**Q.** And the TGI [9]?
**A.** > 100 µM

**Q.** And the TGI [10]?
**A.** > 100 µM

From PubChem BioAssay (NCI)
